Reference: patent US20080207885A1, “Method for site-specific labeling of RNA using a deoxyribozyme” (priority 2007, published 2008)
{App} = adenylated (5'-5' adenylyl pyrophosphate) terminus

What was measured:
Format in all cases: biochemical
[1] = test system: 10DM24 deoxyribozyme; assay: Ligation with full-length R oligonucleotide as substrate, varied 5′-terminal nucleotide; conditions: for kobs: full-length R substrate, deoxyribozyme nucleotide changed to maintain Watson-Crick complementarity
Description: (§1) General Description of Kinetic Assays. All kinetic assays with the 10DM24 deoxyribozyme and its variants were performed according to established methods (Flynn-Charlebois, et al. (2003) supra; Wang and Silverman (2003) supra). The 5′-^32P-labeled RNA substrate (L for “left-hand substrate”) that provides the branch-site adenosine was the limiting reagent relative to 10DM24 (E) and the truncated cofactor RNA (RΔ; R originally derived from “right-hand substrate”). The ratio L:E:RΔ was 1:10:30, with 0.25 μM 10DM24. The cofactor RΔ was 5′-phosphorylated unless otherwise stated. The RNA substrate L, deoxyribozyme 10DM24 and cofactor RΔ were annealed in 5 mM HEPES, pH 7.5, 15 mM NaCl, 0.1 mM EDTA by heating at 95° C. for 3 minutes and cooling on ice for 5 minutes. The ligation reactions were performed with the appropriate concentration of NTP substrate (0.05-50 mM) at a final buffer concentration of 100 mM CHES, pH 9.0, 150 mM NaCl, 2 mM KCl, and 40-400 mM MgCl2 at 37° C. for up to 5 hours. The combination of 1 mM NTP and 40 mM MgCl2 was defined as “standard incubation conditions”; 10 mM NTP and 150 mM MgCl2 was defined as “enhanced incubation conditions”. At appropriate timepoints, aliquots were removed from the sample, quenched into stop solution (80% formamide, 1× TB [89 mM each Tris and boric acid, pH 8.3], and 50 mM EDTA containing 0.025% bromophenol blue and xylene cyanol) and stored at −20° C. prior to analysis. Samples were separated by 20% denaturing PAGE at 30 W for 115 minutes and imaged with a PHOSPHORIMAGER. The resulting data were fit to the equation yield=Y·(1−e^−kt), where k=kobs and Y=final yield.
The generality of the ligation reaction using other NTP substrates in place of GTP was also determined. The analogous reaction with the full-length R oligonucleotide as substrate proceeded well when a 5′-terminal G was present (kobs 0.51 min^−1 for 5′-AppG), with only three-fold reduced rate with 5′-AppA (kobs 0.18 min^−1). The RNA substrate with 5′-AppC reacted 20-fold more slowly than 5′-AppG, but still gave high yield (kobs 0.024 min^−1; 89% in 3 hours), whereas the yield with 5′-AppU was very poor (kobs 0.002 min^−1; 9% in 3 hours). It is noted that in all cases, the corresponding deoxyribozyme nucleotide was changed to maintain Watson-Crick complementarity.

[2] = test system: 10DM24-C44T mutant deoxyribozyme; assay: Ligation of NTP substrate with 10DM24 variant in which the terminal P4 nucleotide is changed C→T, cofactor RΔ; conditions: for krel = kobs,NTP*/kobs,NTP: relative to ATP
Description: as §1
Focus was then placed on the purine NTPs (GTP, ATP) and their derivatives. When 1 mM ATP was provided as a small molecule substrate in place of GTP using the original 10DM24 sequence and RΔ, no reaction was observed (<1% in 5 hours). […] Furthermore, the kobs increased sixteen-fold to 0.013 min^−1 under enhanced conditions with 10 mM ATP (82% yield in 3 hours).

[3] = test system: 10DM24 deoxyribozyme; assay: 10DM24-catalyzed ligation of small-molecule NTP substrate to branch-site adenosine of RNA substrate L with cofactor RΔ; conditions: for kobs,enh/kobs,std: GTP series; for krel = kobs,NTP*/kobs,NTP: relative to GTP
Description: as §1
Use of Free NTPs as Substrates. It was determined whether 10DM24 could catalyze ligation with free GTP as a substrate (see FIG. 1B), thereby transferring guanosine 5′-monophosphate (GMP) to the branch-site adenosine 2′-hydroxyl group. When RΔ, an oligoribonucleotide cofactor that corresponds to all of the remaining nucleotides of R, was added to 10DM24 along with GTP, ligation was efficient (FIG. 8; 94% yield in 5 hours and kobs 0.034 min^−1 under the standard incubation conditions of 1 mM GTP and 40 mM MgCl2 at pH 9.0, 37° C.). The RNA product with the single added guanosine at the branch-site adenosine was PAGE-purified and the identity confirmed by partial alkaline hydrolysis (50 mM NaHCO3 at 95° C. for 5 minutes) and MALDI mass spectrometry (m/z calcd. 5433, found 5437±5).

[4] = test system: 10DM24 deoxyribozyme; assay: Ligation of GTP or pppGpG in presence of shorter cofactor RΔΔ; conditions: RΔΔ cofactor, 20 mM NTP and 150 mM MgCl2, pH 9.0, 37° C.
Description: It was subsequently shown that a binding site for an NTP cofactor can be located adjacent to the substrate binding site. This was achieved by removing an additional nucleotide from the RΔ cofactor, forming the shorter RΔΔ cofactor which required two added nucleotides to reconstitute the complete P4 region (FIG. 10). The 10DM24-catalyzed ligation reaction of GTP in the presence of the two-nucleotide short cofactor RΔΔ was performed with the 5′-^32P-labeled RNA substrate (L) that provides the branch-site adenosine as the limiting reagent. For kinetic assays, the ratio of L:E:RΔΔ was 1:10:30 with 0.25 μM deoxyribozyme (E). For isolation of the reaction products, the ratio L:E:RΔΔ was 1:2:3 with 1.5 μM deoxyribozyme. The reaction was performed under the enhanced incubation conditions with 20 mM GTP and 150 mM MgCl2 in 100 mM CHES, pH 9.0, 150 mM NaCl, and 2 mM KCl at 37° C. for up to 7 hours. […] Both products were isolated and shown by partial alkaline hydrolysis to be branched with the connectivities A-G and A-GG (where A is the branch-site adenosine).
It was contemplated that the new A-GG product was formed by initial templated but otherwise uncatalyzed synthesis of a GG dinucleotide (i.e., pppGpG) from two GTP molecules, followed by 10DM24-catalyzed branch formation using this dinucleotide. […] The reaction was performed under the enhanced incubation conditions of 20 mM GTP and 150 mM MgCl2. […] The pppGpG dinucleotide was synthesized independently using T7 RNA polymerase (Huang, et al. (1998) supra) and led solely to the A-GG product. Although the pppGpG substrate had Kd,app of >1 mM with RΔΔ, similar to Kd,app for GTP with RΔ, the ligation reaction with pppGpG and RΔΔ had kobs six-fold higher than for the analogous reaction with GTP and RΔ (Table 8).
Similar experiments were performed using the mutant 10DM24 deoxyribozyme that has CTTT rather than CCTT in the P4 region (FIG. 11). For the DNA-catalyzed ligation of pppGpG, the 5′-^32P-labeled RNA with the branch-site adenosine (L) was incubated with the 10DM24 deoxyribozyme (E) and the cofactor RΔΔ in the ratio of L:E:RΔΔ=1:10:30 in the presence of 1 mM pppGpG and 40 mM MgCl2 in 100 mM CHES pH 9.0, 150 mM NaCl, and 2 mM KCl at 37° C. The analysis of the ligation reaction was performed as described herein. […] This is consistent with the model that pppGpG and the first two nucleotides of RΔΔ together reconstitute the P4 helix. When the ligation reaction with pppGpG was tested in the presence of RΔ instead of RΔΔ, the ligation product A-GG was formed, but with a 10-fold decrease in kobs (squares in FIG. 11). Because RΔ provides an extraneous G nucleotide when combined with pppGpG (see legend of FIG. 11), some disruption in activity is perhaps anticipated. […] This is consistent with the observation that GTP was also not a substrate for the 10DM24-C44T mutant deoxyribozyme.
The ligation reaction of pppGpG was also performed using a variety of pppGpG concentrations with the parent 10DM24 deoxyribozyme in the presence of RΔΔ and 40 mM MgCl2. In FIG. 12, the kobs values are plotted versus [pppGpG] and fit to kobs=kmax·[pppGpG]/(Kd,app+[pppGpG]). The Kd,app for pppGpG was >1 mM.

[5] = enhanced incubation conditions: 10 mM NTP, 150 mM MgCl2, pH 9.0, 37° C.
[6] = standard incubation conditions: 1 mM NTP, 40 mM MgCl2, pH 9.0, 37° C., RΔ, ATP series
[7] = enhanced incubation conditions: 10 mM NTP, 150 mM MgCl2, 100 mM CHES pH 9.0, 37° C.
[8] = standard incubation conditions: 1 mM NTP, 40 mM MgCl2, 100 mM CHES pH 9.0, 150 mM NaCl, 2 mM KCl, 37° C., RΔ
[9] = standard conditions except with 50 mM CHES

Row | Compound | kobs,enh/kobs,std ([2]; ATP series) | ligation yield %, 3 h ([2]; enhanced incubation conditions) [%] | kobs [2, 5] [min⁻¹] | krel = kobs,NTP*/kobs,NTP ([2]; enhanced incubation conditions) | ligation yield %, 5 h ([2]; standard incubation conditions) [%] | kobs [2, 6] [min⁻¹] | krel = kobs,NTP*/kobs,NTP ([2]; standard incubation conditions) | kobs,enh/kobs,std [3] | ligation yield %, 3 h ([3]; enhanced incubation conditions) [%] | kobs [3, 7] [min⁻¹] | krel = kobs,NTP*/kobs,NTP ([3]; enhanced incubation conditions) | ligation yield %, 5 h ([3]; standard incubation conditions) [%] | kobs [3, 8] [min⁻¹] | krel = kobs,NTP*/kobs,NTP ([3]; standard incubation conditions) | other results
1 | 5′-AppA: full-length R oligonucleotide substrate with 5′-terminal A (AGAAGAGAUGGCGACGG; RNA, 5' {App}, backbone not given here) | – | – | – | – | – | – | – | – | – | – | – | – | – | – | kobs [1]: 0.18 min⁻¹
2 | 5′-AppC: full-length R oligonucleotide substrate with 5′-terminal C (CGAAGAGAUGGCGACGG; RNA, 5' {App}, backbone not given here) | – | – | – | – | – | – | – | – | – | – | – | – | – | – | reacted more slowly than 5′-AppG [1]: 20 fold; ligation yield in 3 hours [1]: 89%; kobs [1]: 0.024 min⁻¹
3 | 5′-AppU: full-length R oligonucleotide substrate with 5′-terminal U (UGAAGAGAUGGCGACGG; RNA, 5' {App}, backbone not given here) | – | – | – | – | – | – | – | – | – | – | – | – | – | – | ligation yield in 3 hours [1]: 9%; kobs [1]: 0.002 min⁻¹
4 | Nc1nc(N)c2ncn(C3OC(COP(=O)(O)OP(=O)(O)OP(=O)(O)O)C(O)C3O)c2n1 (stereo not shown) [DTP, 2,6-diaminopurine ribonucleoside triphosphate] | 8 | 90 | 0.027 | 2.1 | 68 | 0.0032 | 4.0 | – | – | – | – | – | – | – | –
5 | Nc1nc2c(ncn2COCCOP(=O)(O)OP(=O)(O)OP(=O)(O)O)c(=O)[nH]1 [G^acv-TP, acyclovir triphosphate] | – | – | – | – | – | – | – | >7 | 14 | 0.0007 | 0.003 | <1 | <0.0001 | <0.0003 | kobs diminished relative to GTP [3]: ~300 fold
6 | O=P(O)(O)OP(=O)(O)OP(=O)(O)OC[C@H]1O[C@@H](n2cnc3c(O)ncnc32)[C@H](O)[C@@H]1O [ITP, inosine triphosphate] | – | – | – | – | – | – | – | 21 | 84 | 0.014 | 0.05 | 25 | 0.0007 | 0.02 | –
7 | Nc1ncnc2c1ncn2[C@@H]1O[C@H](COP(=O)(O)OP(=O)(O)OP(=O)(O)O)[C@@H](O)[C@@H]1O [ara-ATP, arabino-ATP] | 13 | 44 | 0.005 | 0.41 | 13 | 0.0004 | 0.50 | – | – | – | – | – | – | – | –
8 | Nc1ncc2ncn([C@H]3C[C@H](O)[C@@H](COP(=O)(O)OP(=O)(O)OP(=O)(O)O)O3)c2n1 [d2AP-TP] | >8 | 17 | 0.0008 | 0.06 | <1 | – | <0.1 | – | – | – | 0.003 | – | – | <0.0003 | kobs ([2]; standard conditions with 5′-OH-RΔ): <0.0001^[c] min^−1
9 | Nc1ncnc2c1ncn2[C@H]1C[C@H](O)[C@@H](COP(=O)(O)OP(=O)(O)OP(=O)(O)O)O1 [dATP] | 19 | 65 | 0.007 | 0.56 | 17 | 0.0004 | 0.50 | – | – | – | – | – | – | – | –
10 | Nc1nc2c(ncn2[C@H]2C[C@H](O)[C@@H](COP(=O)(O)OP(=O)(O)OP(=O)(O)O)O2)c(=O)[nH]1 [dGTP, 2′-deoxyGTP] | – | – | – | – | – | – | – | 4 | 90 | 0.081 | 0.31 | 88 | 0.020 | 0.60 | reaction products formed [4]: only the single-nucleotide addition product
11 | Nc1ncnc2c1ncn2[C@H]1CC[C@@H](COP(=O)(O)OP(=O)(O)OP(=O)(O)O)O1 [ddATP] | – | – | – | – | 25 | 0.0007 | 0.87 | – | – | – | – | – | – | – | –
12 | Nc1nc2c(ncn2[C@H]2CC[C@@H](COP(=O)(O)OP(=O)(O)OP(=O)(O)O)O2)c(=O)[nH]1 [ddGTP, 2′,3′-dideoxyGTP] | – | – | – | – | – | – | – | – | – | – | – | – | – | – | kobs [3, 9]: 0.013 min⁻¹; ligation yield %, 5 h [3, 9]: 85%; krel = kobs,NTP*/kobs,NTP [3, 9]: 0.38
13 | C2-C3-cleaved GTP [G^clv-TP] | – | – | – | – | – | – | – | >3 | 6 | 0.0003 | 0.001 | <1 | <0.0001 | <0.0003 | kobs diminished relative to GTP [3]: approximately 1000 fold
